In patent US10259777B2, “(E)-3-(3,4-dihydroxyphenyl)-N-(prop-2-yn-1-yl)acrylamide for treatment of neurodegenerative diseases” (THE UNIVERSITY OF HONG KONG, priority 2015, dated 2019):

Key:
[1] = test system: PC12 cells; assay: 6-OHDA-induced neurotoxicity in PC12 cells, MTT cell viability; type: cell-based, rat; settings: 6-OHDA with or without PACA, 24 hours
Experimental: Neurotoxin 6-hydroxydopamine (6-OHDA) is widely used to induce the cell model of human Parkinsonism. PC12 cells were treated with 6-OHDA with or without PACA for 24-hours, the cell viability was assessed by the colorimetric MTT assay. The relative cell viability was plotted against the concentrations of PACA. On the other hand, primary midbrain neurons were isolated from 17-day-old Sprague Dawley (SD) rat embryos. The midbrain neurons were treated with 6-OHDA with or without PACA for 12-hours, the cell viability was assessed by the colorimetric MTT assay. Alternatively, the neurons were stained with 5 μM of Hoechst 33342 and 1 μM of PI in the differentiation medium at 37° C. for 30 min. The images were captured on a Zeiss fluorescence microscope. (A) MTT assay of the cell viability in PC 12 cells. […] PI-positive and Hoechst 33342-stained neurons were counted under a fluorescence microscope. […]
Neurotoxin 6-hydroxydopamine (6-OHDA) is widely used to induce the cell model of human Parkinsonism. PC12 cells were treated with 6-OHDA with or without PACA for 24-hours, the cell viability was assessed by the colorimetric MTT assay. […] The midbrain neurons were treated with 6-OHDA with or without PACA for 12-hours, the cell viability was assessed by the colorimetric MTT assay. […] The images were captured on a Zeiss fluorescence microscope.

[2] = test system: mouse model of Parkinson's disease; assay: MPTP-induced motor dysfunctions, rotarod and pole test; type: in vivo, mice; settings: PACA 15 mg/kg p.o. and MPTP 25 mg/kg i.p. daily for seven days, rotarod and pole test at day-8
Experimental: FIG. 11. In vivo Effect of PACA on MPTP-induced motor dysfunctions in mice. (A) Study design. (B) Rotarod test. Mice were placed on horizontal drums (30 mm in diameter), rotating at a progressively increasing speed, from 4 to 32 rpm over a 5-min period. The time that each animal stayed on the rod before falling was measured. (C) Pole test. Mice were placed with facing head-up on the top of the 50 cm long metal rod (1 cm diameter). Total time for each animal to reach the base of the pole was recorded. Each mouse was tested for three times. The data were presented as Mean±SEM and analyzed by one-way ANOVA with post-hoc Dunnett test. *p<0.05; **, p<0.01.
The in vivo neuroprotective effect of PACA was evaluated in a mouse model of Parkinson's disease. Nineteen mice were randomly divided into three groups: control (n=5), receiving vehicle administrations; MPTP (n=7), receiving i.p. injection of MPTP (25 mg/kg) every afternoon for seven days; MPTP+PACA (n=7), receiving p.o administration of PACA (15 mg/kg) every morning and i.p. injection of MPTP (25 mg/kg) every afternoon for seven days. At day-8, the motor functions of mice were assessed by rotarod performance test and pole test.

[3] = test system: Nrf2; assay: Nrf2 translocation into cell nuclei, Western blot and immunostaining; type: cell-based, rat
Experimental: Direct modification of Keap1 caused the dissociation of Nrf2-Keap1 complex. Based on Western blot analysis of the nuclear proteins and immunostaining of intracellular Nrf2, PACA induced the translocation of Nrf2 into the cell nuclei in a concentration-dependent manner. (A) Western blot analysis of cytosolic and nuclear Nrf2. Following PACA treatment, the cytosolic and nuclear proteins were isolated and analyzed by Western blotting for Nrf2 expression. GAPDH and lamin b were analyzed as the control of protein loading. (B) Immunostaining of the intracellular Nrf2. Following PACA treatment, the cells were probed with Nrf2 antibody, and subsequently visualized with […] secondary antibody. […] The images were captured under a fluorescence microscope. […]
Direct modification of Keap1 caused the dissociation of Nrf2-Keap1 complex. […] For Western blot analysis, the cellular proteins were separated into the cytosolic and nuclear fractions, and analyzed by Western blotting with Nrf2 antibodies. GAPDH was used as the control of protein loading, whereas Lamin B was detected as the nuclear biomarker. […] For immunostaining of the intracellular Nrf2, on the other hand, PC12 cells were sequentially probed with rabbit anti-Nrf2 antibody and detected by Alexa Fluor 594-conjugated goat anti-rabbit IgG antibodies PACA. The images were captured under a Zeiss fluorescence microscope.

## C#CCNC(=O)/C=C/c1ccc(O)c(O)c1 [PACA, (E)-3-(3,4-dihydroxyphenyl)-N-(prop-2-yn-1-yl)acrylamide]
[1]
  6-OHDA neurotoxicity in PC12 cells: attenuated 6-hydroxydopamine (6-OHDA) neurotoxicity
[2]
  protection against MPTP-induced motor dysfunctions: effectively protected animals against MPTP-induced motor dysfunctions
[3]; PACA at different concentrations, Western blot of nuclear fraction
  levels of nuclear Nrf2: significantly increased the levels of nuclear Nrf2 in a concentration-dependent manner
[3]; PC12 cells, anti-Nrf2 immunostaining
  intracellular Nrf2 localization by immunostaining: promoted the accumulation of Nrf2 in the cell nucleus
